Test results from ChEMBL document CHEMBL6121065, “Targeting the "Undruggable": Small-Molecule Inhibitors of Proliferating Cell Nuclear Antigen (PCNA) in the Spotlight in Cancer Therapy” (J Med Chem, 2025).

How the values were obtained:
[1] = Antiproliferative activity against human SK-N-BE(2)-C cells; assay type: functional, cell-based
[2] = system: SK-N-AS; assay: Antiproliferative activity against human SK-N-AS cells assessed as reduction in cell viability incubated for 72 hrs by cell-titer Glo assay; assay type: functional, cell-based
[3] = system: SK-N-DZ; assay: Antiproliferative activity against human SK-N-DZ cells; assay type: functional, cell-based
[4] = system: SK-N-AS; assay: Anticancer activity against human SK-N-AS cells; assay type: functional, cell-based
[5] = target: T1, Proliferating cell nuclear antigen (Homo sapiens, UniProt P12004); assay: Binding affinity to N-terminal recombinant 6His-tagged PCNA (unknown origin) extracted from Escherichia coli BL21 (DE3) by fluorescence polarization assay
T1 sequence (P12004 whole entry): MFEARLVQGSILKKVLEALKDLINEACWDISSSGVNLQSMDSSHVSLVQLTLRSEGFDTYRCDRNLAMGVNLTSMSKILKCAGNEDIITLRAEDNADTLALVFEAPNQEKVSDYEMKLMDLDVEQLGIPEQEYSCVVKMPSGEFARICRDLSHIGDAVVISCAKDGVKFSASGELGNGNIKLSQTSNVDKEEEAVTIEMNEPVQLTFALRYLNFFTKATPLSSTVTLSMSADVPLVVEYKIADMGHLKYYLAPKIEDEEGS

[6] = system: MCF7; assay: Antiproliferative activity against human MCF7 cells assessed as reduction in cell growth measured for 48 hrs by MTT assay; assay type: functional, cell-based; settings: MCF7, 48 h
[7] = system: HeLa; assay: Antiproliferative activity against human HeLa cells assessed as reduction in cell growth measured for 48 hrs by MTT assay; assay type: functional, cell-based
[8] = system: HCT-116; assay: Antiproliferative activity against human HCT-116 cells assessed as reduction in cell growth measured for 48 hrs by MTT assay; assay type: functional, cell-based; settings: HCT-116, 48 h
[9] = system: HepG2; assay: Antiproliferative activity against human HepG2 cells assessed as reduction in cell growth measured for 48 hrs by MTT assay; assay type: functional, cell-based; settings: HepG2, 48 h
[10] = system: Jurkat; assay: Antiproliferative activity against human Jurkat cells assessed as reduction in cell growth measured for 48 hrs by MTT assay; assay type: functional, cell-based
[11] = target: T1, Proliferating cell nuclear antigen; assay: Inhibition of N-terminal 6His-tagged recombinant PCNA (unknown origin) extracted from Escherichia coli BL21 (DE3) by fluorescence based analysis
[12] = system: A673; assay: Antiproliferative activity against human A673 cells assessed as reduction in cell viability incubated for 72 hrs by MTT assay; assay type: functional, cell-based; settings: A673, 72 h
[13] = system: HeLa; assay: Antiproliferative activity against human HeLa cells assessed as reduction in cell viability incubated for 72 hrs by MTT assay; assay type: functional, cell-based
[14] = system: A549; assay: Antiproliferative activity against human A549 cells assessed as reduction in cell viability incubated for 72 hrs by MTT assay; assay type: functional, cell-based; settings: A549, 72 h
[15] = system: SH-SY5Y; assay: Antiproliferative activity against human SH-SY5Y cells assessed as reduction in cell viability; assay type: functional, cell-based

SMILES	IC50 [2] [µM]	Ki [5] [µM]	further results
O=C(CNC(=O)c1cccc2ccccc12)Nc1ccccc1Oc1cccc(O)c1	0.192		IC50 [1]: 0.485 µM; IC50 [3]: 0.539 µM
O=C(CNC(=O)c1cncc2ccccc12)Nc1ccc(Oc2ccncc2)cc1	> 30		
O=C(CCNC(=O)c1cccc2ccccc12)Nc1ccccc1Oc1ccccc1			IC50 [4]: > 10 µM
O=C(CNC(=O)c1cccc2ccccc12)Nc1ccc(Cl)cc1Oc1ccccc1	0.185		IC50 [1]: 0.5 µM; IC50 [3]: 0.447 µM
O=C(CNC(=O)c1nccc2ccccc12)Nc1ccc(Oc2ccncc2)cc1	> 30		
CNC(=O)Cc1cc(I)c(Oc2ccc(O)cc2)c(I)c1		0.78	
O=C(CNC(=O)c1nccc2ccccc12)Nc1ccccc1Oc1ccncc1	42		
O=C(CNC(=O)c1nccc2ccccc12)Nc1cccc(Oc2ccncc2)c1	34		
COc1cc(C(=O)N2CCC(N3CCN(C)CC3)CC2)ccc1Nc1ncc2c(n1)N(C)c1ccccc1C(=O)N2C			IC50 [6]: 42.8 µM; IC50 [7]: 13.5 µM; IC50 [8]: 9.25 µM; IC50 [9]: 89.1 µM; IC50 [10]: 5.9 µM
O=C(O)CC[C@@H](NC(=O)c1cccc2ccccc12)C(=O)Nc1ccccc1Oc1ccccc1			IC50 [4]: > 10 µM
O=C(CNC(=O)c1cncc2ccccc12)Nc1ccccc1Oc1ccncc1	> 30		
O=C(CNC(=O)c1cccc2ccccc12)Nc1c(Cl)cccc1Oc1ccccc1	> 10		IC50 [1]: > 10 µM; IC50 [3]: > 10 µM
CCCCCCNC(=O)NC[C@@H](N)Cc1cc(I)c(Oc2ccc(O)cc2)c(I)c1		0.12	
CCNC(=O)Cc1cc(I)c(Oc2ccc(O)cc2)c(I)c1		0.63	
O=C(CNC(=O)c1cccc2ccccc12)Nc1ccc(Oc2ccncc2)cc1	1.1		
O=C(CCc1cc(I)c(Oc2ccc(O)cc2)c(I)c1)N1CCCCC1		0.231	
Cc1cc(Oc2c(I)cc(C[C@H](N)CO)cc2I)ccc1O		0.173	
N[C@H](CNC(=O)NC(=O)CCN1CCOCC1)Cc1cc(I)c(Oc2ccc(O)cc2)c(I)c1		0.11	IC50 [11]: 1.2 µM
COc1cccc(Oc2ccccc2NC(=O)CNC(=O)Cc2cccc3ccccc23)c1	> 10		
COc1cccc(Oc2ccccc2NC(=O)CNC(=O)c2c(C)cc(C)cc2C)c1			IC50 [12]: 5.5 µM; IC50 [13]: 6.5 µM; IC50 [14]: 4.7 µM
O=S(=O)(N[C@H](CO)Cc1cc(I)c(Oc2ccc(O)cc2)c(I)c1)c1ccccc1		0.57	

SMILES	IC50 [2] [µM]	Ki [5] [µM]	further results
C[C@H](NC(=O)c1cccc2ccccc12)C(=O)Nc1ccccc1Oc1ccccc1			IC50 [15]: 4 µM
NCCCC[C@H](NC(=O)c1cccc2ccccc12)C(=O)Nc1ccccc1Oc1ccccc1			IC50 [4]: > 10 µM
N[C@H](CO)Cc1cc(I)c(Oc2ccc(O)c(I)c2)c(I)c1		0.06	
NCCCC[C@@H](NC(=O)c1cccc2ccccc12)C(=O)Nc1ccccc1Oc1ccccc1			IC50 [4]: > 10 µM
O=C(CNC(=O)c1nccc2ccccc12)Nc1ccccc1Oc1ccccc1	35		
NC(=O)CN(Cc1ccc2c(c1)OCO2)C(=O)CN(CCO)C(=O)CN[C@H](CO)Cc1cc(I)c(Oc2ccc(O)cc2)c(I)c1		0.17	
COc1ccc(Oc2c(I)cc(CCC(=O)NS(C)(=O)=O)cc2I)cc1		> 4.81	
CNC(=O)CCc1cc(I)c(Oc2ccc(OC)cc2)c(I)c1		1.63	
O=C(Cc1cc(I)c(Oc2ccc(O)cc2)c(I)c1)N1CCOCC1		0.6	
O=C(CNC(=O)c1cccc2ccccc12)Nc1ccccc1Cc1ccccc1	1.1		
CS(=O)(=O)NC(=O)Cc1cc(I)c(Oc2ccc(O)cc2)c(I)c1		0.87	
O=C(CNC(=O)c1cccc2ccccc12)Nc1ccccc1Oc1ccc(O)cc1	0.156		IC50 [1]: 0.49 µM; IC50 [3]: 0.467 µM
O=C(Nc1ccccc1Oc1ccccc1)c1cccc2ccccc12			IC50 [4]: > 10 µM
O=C(CNC(=O)c1cccc2ccccc12)Nc1ccccc1Oc1ccccc1	0.1		IC50 [1]: 0.325 µM; IC50 [3]: 0.237 µM
COc1cccc(Oc2ccccc2NC(=O)CNC(=O)CCc2cccc3ccccc23)c1	> 10		
COc1cccc(Oc2ccccc2NC(=O)CNC(=O)c2cccc3ccccc23)c1	0.125		IC50 [1]: 0.236 µM; IC50 [3]: 0.288 µM
NCc1ccc(CN(CC(N)=O)C(=O)CN(CCO)C(=O)CN[C@H](CO)Cc2cc(I)c(Oc3ccc(O)cc3)c(I)c2)cc1		0.114	IC50 [11]: 1.18 µM
O=C(O)CC[C@H](NC(=O)c1cccc2ccccc12)C(=O)Nc1ccccc1Oc1ccccc1			IC50 [4]: > 10 µM
O=C1CN(C(=O)Cc2cc(I)c(Oc3ccc(O)cc3)c(I)c2)CCN1		0.87	
COc1cccc(Oc2ccccc2NC(=O)[C@H](C)NC(=O)c2cccc3ccccc23)c1			IC50 [4]: > 10 µM
N[C@H](CNC(=O)CO)Cc1cc(I)c(Oc2ccc(O)cc2)c(I)c1		0.13	

SMILES	IC50 [2] [µM]	Ki [5] [µM]	further results
COc1ccc(Oc2ccccc2NC(=O)CNC(=O)c2cccc3ccccc23)cc1	0.091		IC50 [1]: 0.234 µM; IC50 [3]: 0.271 µM
O=C(CNC(=O)c1cncc2ccccc12)Nc1cccc(Oc2ccncc2)c1	> 30		
Cc1noc(C)c1S(=O)(=O)N[C@H](CO)Cc1cc(I)c(Oc2ccc(O)cc2)c(I)c1		0.15	
O=C(CNC(=O)c1cncc2ccccc12)Nc1ccccc1Oc1ccccc1	> 30		
CC(C)[C@H](NC(=O)c1cccc2ccccc12)C(=O)Nc1ccccc1Oc1ccccc1			IC50 [4]: > 10 µM
NC(=O)CN(Cc1ccc(O)cc1)C(=O)CN(CCO)C(=O)CN[C@H](CO)Cc1cc(I)c(Oc2ccc(O)cc2)c(I)c1		0.04	
CN(C)C(=O)Cc1cc(I)c(Oc2ccc(O)cc2)c(I)c1		0.72	
O=S(=O)(N[C@H](CO)Cc1cc(I)c(Oc2ccc(O)cc2)c(I)c1)c1ccc(O)cc1		3.08	
O=C(CNC(=O)c1cccc2ccccc12)Nc1cccc(Oc2ccncc2)c1	21.6		
O=C(CNC(=O)c1cccc2ccccc12)Nc1ccccc1Oc1ccncc1	> 50		
NC(=O)CN(Cc1ccc(CO)cc1)C(=O)CNC(=O)CN[C@H](CO)Cc1cc(I)c(Oc2ccc(O)cc2)c(I)c1			IC50 [11]: 5.56 µM
NC[C@@H](N)Cc1cc(I)c(Oc2ccc(O)cc2)c(I)c1		0.24	
CC(C)[C@@H](NC(=O)c1cccc2ccccc12)C(=O)Nc1ccccc1Oc1ccccc1			IC50 [4]: > 10 µM
COc1ccc(S(=O)(=O)N[C@H](CO)Cc2cc(I)c(Oc3ccc(O)cc3)c(I)c2)cc1		0.93	
O=C1NC[C@H](Cc2cc(I)c(Oc3ccc(O)cc3)c(I)c2)N1		0.54	
COc1ccc(Oc2c(I)cc(CCC(=O)N3CCCCC3)cc2I)cc1		0.91	
O=C1CN(C(=O)CCc2cc(I)c(Oc3ccc(O)cc3)c(I)c2)CCN1		> 4.81	
COc1cccc(Oc2ccccc2NC(=O)CNC(=O)c2ccc(-c3ccccc3)cc2)c1	> 10		
N[C@H](CNC(=O)NCc1ccccc1)Cc1cc(I)c(Oc2ccc(O)cc2)c(I)c1		0.01	
CS(=O)(=O)NC(=O)CCc1cc(I)c(Oc2ccc(O)cc2)c(I)c1		1.92	
